# Test results published in article PMC6104039 (Nature Communications, 2018).
# Several values for one entry are separate records, joined by “and”; a condition that tells them apart may be missing. Equal entries are not always repeated.
# System: HEK293 cells
# Assay: Endogenous ceramide, HexCer and SM levels in cells treated 24 h, targeted LC-MS/MS
# Type: cell-based
# Parameters: Cer 18:1/24:0 content in HEK293 cells / Cer 18:1/24:1 content in HEK293 cells / HexCer 18:1/16:0 content in HEK293 cells / HexCer 18:1/18:0 content in HEK293 cells / HexCer 18:1/20:0 content in HEK293 cells / HexCer 18:1/22:0 content in HEK293 cells / Cer 18:1/16:0 content in HEK293 cells / Cer 18:1/18:0 content in HEK293 cells / Cer 18:1/20:0 content in HEK293 cells / Cer 18:1/22:0 content in HEK293 cells: unit not given here
# Details: replicates, raw data Suppl Fig 1
# Description: Lipids were then extracted using MTBE/methanol/water as described above.
# HEK293 cell culture experiment: Levels of each lipid in P053-treated HEK293 cells were normalised to the mean of the vehicle control group, and each concentration was compared to the control using ANOVA with Dunnett’s post-test. P values were adjusted for multiple comparisons in GraphPad PRISM.
# Supplementary Figure 1. Ceramide, SM, and HexCer levels in HEK293 cells treated with
# P053. Absolute lipid levels were determined by targeted LC-MS/MS, relative to external
# standard curves. Results are mean ± SEM (n = 4) from one of two identical experiments.
# Statistically significant results, based on two independent experiments, are as indicated in
# Figure 2b-d. Raw data for these figures is provided in Supplementary Data File 1.
smiles,measurement,setting,value
"C[C@@](N)(CO)CCc1ccc(OCc2ccc(Cl)c(Cl)c2)cc1 [P053, (S)-2-amino-4-(4-(3,4-dichlorobenzyloxy)phenyl)-2-methylbutan-1-ol]",Cer 18:1/24:0 content in HEK293 cells,P053 10 nM,78.2507 and 97.4893 and 100.975 and 120.086
same,Cer 18:1/24:1 content in HEK293 cells,P053 10 nM,41.2869 and 36.9476 and 41.283 and 38.2211
same,HexCer 18:1/16:0 content in HEK293 cells,P053 10 nM,30.7043 and 33.6425 and 33.4465 and 30.9255
same,HexCer 18:1/18:0 content in HEK293 cells,P053 10 nM,4.5494 and 4.09 and 4.473 and 4.32
same,HexCer 18:1/20:0 content in HEK293 cells,P053 10 nM,0.3088 and 0.3692 and 0.4154 and 0.4356
same,HexCer 18:1/22:0 content in HEK293 cells,P053 10 nM,36.8189 and 34.9551 and 38.6561 and 38.9837
same,HexCer 18:1/24:0 content in HEK293 cells,P053 10 nM,199.303 and 216.657 and 249.013 and 199.834
same,HexCer 18:1/24:1 content in HEK293 cells,P053 10 nM,70.2405 and 72.3688 and 73.5755 and 68.734
same,SM 32:1 content in HEK293 cells,P053 10 nM,35.2485 and 30.6751 and 30.1932 and 30.0675
same,SM 34:1 content in HEK293 cells,P053 10 nM,296.401 and 243.663 and 224.502 and 225.737
same,SM 34:2 content in HEK293 cells,P053 10 nM,47.2234 and 40.324 and 36.1571 and 38.6716
same,SM 36:1 content in HEK293 cells,P053 10 nM,29.6301 and 20.7933 and 22.4748 and 21.0053
same,SM 36:2 content in HEK293 cells,P053 10 nM,11.2341 and 9.942 and 8.241 and 8.207
same,SM 38:1 content in HEK293 cells,P053 10 nM,6.182 and 8.401 and 6.6333 and 8.787
same,SM 40:1 content in HEK293 cells,P053 10 nM,40.0944 and 41.0366 and 34.4775 and 35.2843
same,SM 40:2 content in HEK293 cells,P053 10 nM,10.3276 and 10.9643 and 10.3385 and 8.643
same,SM 42:1 content in HEK293 cells,P053 10 nM,68.7535 and 68.4711 and 69.6713 and 77.5442
same,SM 42:2 content in HEK293 cells,P053 10 nM,119.092 and 115.121 and 104.672 and 105.467
same,Cer 18:1/16:0 content in HEK293 cells,P053 30 nM,19.0547 and 20.8444 and 18.7423 and 20.5749
same,Cer 18:1/18:0 content in HEK293 cells,P053 30 nM,5.081 and 5.075 and 4.316 and 4.99
same,Cer 18:1/20:0 content in HEK293 cells,P053 30 nM,0.7183 and 0.7479 and 0.6521 and 0.6855
same,Cer 18:1/22:0 content in HEK293 cells,P053 30 nM,57.3121 and 66.2959 and 65.6669 and 64.5364
same,Cer 18:1/24:0 content in HEK293 cells,P053 30 nM,85.8777 and 134.225 and 118.415 and 97.9167
same,Cer 18:1/24:1 content in HEK293 cells,P053 30 nM,37.3744 and 44.4522 and 42.1609 and 41.0899
same,HexCer 18:1/16:0 content in HEK293 cells,P053 30 nM,29.7152 and 31.7982 and 33.8438 and 30.9723
same,HexCer 18:1/18:0 content in HEK293 cells,P053 30 nM,3.0394 and 3.951 and 4.099 and 3.127
same,HexCer 18:1/20:0 content in HEK293 cells,P053 30 nM,0.3329 and 0.4128 and 0.4628 and 0.5232
same,HexCer 18:1/22:0 content in HEK293 cells,P053 30 nM,32.4873 and 39.9972 and 37.7095 and 34.9843
same,HexCer 18:1/24:0 content in HEK293 cells,P053 30 nM,190.472 and 249.822 and 223.238 and 200.878
same,HexCer 18:1/24:1 content in HEK293 cells,P053 30 nM,66.6616 and 76.2502 and 69.0398 and 65.5993
same,SM 32:1 content in HEK293 cells,P053 30 nM,30.2036 and 32.0092 and 28.7617 and 34.5111
same,SM 34:1 content in HEK293 cells,P053 30 nM,248.003 and 262.537 and 249.572 and 281.872
same,SM 34:2 content in HEK293 cells,P053 30 nM,41.231 and 41.1196 and 40.1333 and 43.2759
same,SM 36:1 content in HEK293 cells,P053 30 nM,22.0304 and 22.5253 and 18.9401 and 24.6728
same,SM 36:2 content in HEK293 cells,P053 30 nM,9.089 and 8.502 and 8.127 and 10.0466
same,SM 38:1 content in HEK293 cells,P053 30 nM,14.9847 and 8.56 and 5.18 and 11.7454
same,SM 40:1 content in HEK293 cells,P053 30 nM,39.8982 and 44.3327 and 34.2754 and 42.2123
same,SM 40:2 content in HEK293 cells,P053 30 nM,9.856 and 9.764 and 9.362 and 10.5652
same,SM 42:1 content in HEK293 cells,P053 30 nM,69.7563 and 80.9547 and 78.46 and 71.8434
same,SM 42:2 content in HEK293 cells,P053 30 nM,104.731 and 121.981 and 114.303 and 118.688
same,Cer 18:1/16:0 content in HEK293 cells,P053 100 nM,22.9494 and 19.2357 and 22.5073 and 19.0496
same,Cer 18:1/18:0 content in HEK293 cells,P053 100 nM,2.972 and 3.68 and 3.21 and 2.092
same,Cer 18:1/20:0 content in HEK293 cells,P053 100 nM,0.613 and 0.738 and 0.687 and 0.5601
same,Cer 18:1/22:0 content in HEK293 cells,P053 100 nM,66.0373 and 65.445 and 75.6523 and 61.1907
same,Cer 18:1/24:0 content in HEK293 cells,P053 100 nM,95.8984 and 114.847 and 144.796 and 106.353
same,Cer 18:1/24:1 content in HEK293 cells,P053 100 nM,43.7952 and 41.4019 and 48.5214 and 41.0347
same,HexCer 18:1/16:0 content in HEK293 cells,P053 100 nM,28.7244 and 29.2314 and 27.3495 and 32.1782
same,HexCer 18:1/18:0 content in HEK293 cells,P053 100 nM,1.552 and 2.033 and 2.382 and 2.572
same,HexCer 18:1/20:0 content in HEK293 cells,P053 100 nM,0.3018 and 0.2953 and 0.2763 and 0.1537
same,HexCer 18:1/22:0 content in HEK293 cells,P053 100 nM,35.0199 and 40.376 and 33.9893 and 41.9484
same,HexCer 18:1/24:0 content in HEK293 cells,P053 100 nM,193.278 and 206.781 and 205.001 and 225.138
same,HexCer 18:1/24:1 content in HEK293 cells,P053 100 nM,66.6213 and 67.2246 and 64.4273 and 72.2662
same,SM 32:1 content in HEK293 cells,P053 100 nM,33.5311 and 33.1495 and 31.0137 and 33.9978
same,SM 34:1 content in HEK293 cells,P053 100 nM,239.205 and 244.554 and 241.828 and 261.421
same,SM 34:2 content in HEK293 cells,P053 100 nM,40.9604 and 43.1506 and 39.5005 and 44.6858
same,SM 36:1 content in HEK293 cells,P053 100 nM,15.6181 and 17.1499 and 17.2078 and 18.9256
same,SM 36:2 content in HEK293 cells,P053 100 nM,6.971 and 7.206 and 7.1332 and 7.405
same,SM 38:1 content in HEK293 cells,P053 100 nM,4.352 and 7.605 and 11.0645 and 10.3031
same,SM 40:1 content in HEK293 cells,P053 100 nM,39.6185 and 38.4983 and 41.6326 and 45.0957
same,SM 40:2 content in HEK293 cells,P053 100 nM,10.6428 and 11.1113 and 10.5382 and 10.6417
same,SM 42:1 content in HEK293 cells,P053 100 nM,70.6629 and 69.6062 and 82.0245 and 85.9318
same,SM 42:2 content in HEK293 cells,P053 100 nM,112.606 and 107.685 and 114.026 and 114.211
same,Cer 18:1/16:0 content in HEK293 cells,P053 300 nM,17.822 and 19.0766 and 17.3933
same,Cer 18:1/18:0 content in HEK293 cells,P053 300 nM,1.8912 and 1.699 and 1.376
same,Cer 18:1/20:0 content in HEK293 cells,P053 300 nM,0.7162 and 0.4601 and 0.6576
same,Cer 18:1/22:0 content in HEK293 cells,P053 300 nM,64.624 and 69.7847 and 70.6121
same,Cer 18:1/24:0 content in HEK293 cells,P053 300 nM,94.7176 and 106.124 and 124.497
same,Cer 18:1/24:1 content in HEK293 cells,P053 300 nM,42.6517 and 39.4375 and 41.6471
same,HexCer 18:1/16:0 content in HEK293 cells,P053 300 nM,26.9367 and 27.3197 and 28.9409
same,HexCer 18:1/18:0 content in HEK293 cells,P053 300 nM,1.661 and 1.355 and 1.491
same,HexCer 18:1/20:0 content in HEK293 cells,P053 300 nM,0.2792 and 0.518 and 0.2446
same,HexCer 18:1/22:0 content in HEK293 cells,P053 300 nM,43.5691 and 40.2015 and 45.0568
same,HexCer 18:1/24:0 content in HEK293 cells,P053 300 nM,220.79 and 197.985 and 254.871
same,HexCer 18:1/24:1 content in HEK293 cells,P053 300 nM,63.1626 and 68.7371 and 74.9033
same,SM 32:1 content in HEK293 cells,P053 300 nM,31.4532 and 33.3582 and 37.098
same,SM 34:1 content in HEK293 cells,P053 300 nM,241.436 and 241.197 and 248.392
same,SM 34:2 content in HEK293 cells,P053 300 nM,42.0268 and 43.5268 and 45.2968
same,SM 36:1 content in HEK293 cells,P053 300 nM,14.7086 and 14.6722 and 17.3205
same,SM 36:2 content in HEK293 cells,P053 300 nM,6.184 and 6.8179 and 6.541
same,SM 38:1 content in HEK293 cells,P053 300 nM,9.78 and 11.6533 and 8.0822
same,SM 40:1 content in HEK293 cells,P053 300 nM,43.4372 and 43.0067 and 50.439
same,SM 40:2 content in HEK293 cells,P053 300 nM,12.0217 and 11.0813 and 11.4772
same,SM 42:1 content in HEK293 cells,P053 300 nM,70.0557 and 70.3641 and 94.669
same,SM 42:2 content in HEK293 cells,P053 300 nM,117.582 and 110.303 and 130.267
